From article PMC7069095, “A cell-permeable peptide-based PROTAC against the oncoprotein CREPT proficiently inhibits pancreatic cancer” (Theranostics, 2020)
“Also recorded” adds a separate entry of the source. Non-standard residues stand in square brackets, D forms with d. Residues, ends and D or L forms follow the SMILES beside them. Hyp = O=C(O)[C@@H]1C[C@@H](O)CN1; Ahx = NCCCCCC(=O)O

Experiments:
Assay type in all cases: cell-based
[1] = test system: Panc-1 cells; assay: Confocal fluorescence imaging of FITC labeled peptides in cells; settings: flow cytometry and confocal imaging of FITC-labeled PRTC; Panc-1, AsPc-1, MIA PaCa-2 cells
Description: To examine whether PRTC could permeate into pancreatic cancer cells, we synthesized fluorescein isothiocyanate (FITC) labeled PRTC, PRTC-m, PRTC-v, PRTC-r (PRTC without RRRRK) as well as TAT (a widely used cell penetrating peptide, as a positive control).
Figure 3 Identification of the permeability of PRTC in Panc-1 cells. (A) Entry of FITC- labeled peptides into Panc-1 cells tested by flow cytometry. FITC-TAT is the positive control. Measurements were performed in triplicate. (B) Quantification of cellular uptake of Panc-1 cells treated with different concentrations of FITC-PRTC. (C) Confocal microscope images of Panc-1 cells treated with 10 μM FITC labeled peptides. Scale bars, 10 μm. (D) Confocal microscope images of Panc-1 cells treated with different dosages of FITC-PRTC. Scale bars, 10 μm.

[2] = target: T1, endogenous CREPT protein in Panc-1 cells (Homo sapiens, UniProt Q9NQG5); assay: Western blot of endogenous CREPT (degradation)
T1 construct: endogenous protein level of CREPT in Panc-1, AsPc-1 and MIA-PaCa-2 cells; endogenous in cells; host or cells: Panc-1, AsPc-1, MIA PaCa-2
T1 sequence (Q9NQG5 1-326): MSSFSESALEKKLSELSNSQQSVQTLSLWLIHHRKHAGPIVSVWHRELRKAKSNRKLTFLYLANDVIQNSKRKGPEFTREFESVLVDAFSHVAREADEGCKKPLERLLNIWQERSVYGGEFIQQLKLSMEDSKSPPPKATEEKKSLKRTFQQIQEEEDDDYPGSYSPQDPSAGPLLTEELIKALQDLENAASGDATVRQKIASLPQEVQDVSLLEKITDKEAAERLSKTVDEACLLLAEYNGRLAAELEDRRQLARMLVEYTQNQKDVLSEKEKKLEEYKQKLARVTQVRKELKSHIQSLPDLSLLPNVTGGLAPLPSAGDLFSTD
Description: (§1) For exogenous immunoprecipitation assays, HEK293T cells were plated in 60 mm dishes and then transfected with the indicated plasmids. After 24 h, cells were harvested using RIPA buffer (50 mM Tris-HCl pH 8.0, 2 mM EDTA pH 8.0, 150 mM NaCl, 1% NP-40, 0.5% sodium deoxycholate, 0.1% SDS) with mixed protease inhibitors. Cell lysates were incubated with 2 μg of the indicated antibodies and 30 μL of protein A/G-Sepharose beads at 4 °C overnight. Beads were eluted five times with lysis buffer (50 mM Tris-HCl pH 7.6, 1 mM EDTA pH 8.0, 165 mM NaCl, 0.5% NP-40), and thereafter, a western blot assay was performed to analyze the association by using the indicated antibodies. Western blot was performed as previously reported. Anti-β-actin and anti-Flag antibodies were purchased from Sigma. Anti-Myc antibody was purchased from Santa Cruz Biotechnology. Antibody against CREPT was produced in the laboratory.
(§2) To address whether PRTC could induce CREPT degradation, we examined the endogenous protein level of CREPT in Panc-1, AsPc-1 and MIA-PaCa-2 cells in the presence of different dosages of PRTC. […] Consistently, treatment with PRTC led to decreases in CREPT protein at different times (Figure 5B, S3A). […] To further visualize the degradation process, we stained the endogenous CREPT protein with an antibody against CREPT in the cells treated with FITC-labeled PRTC.
Figure 5 PRTC induces the ubiquitination and proteasome- dependent degradation of the endogenous CREPT protein. (A) Immunoblot of CREPT following 24 h incubation with different dosages of PRTC or PRTC-m in Panc-1 cells. (B) Immunoblot of CREPT exposed to 10 μM PRTC or PRTC-m for different times in Panc-1 cells. (C) Western blot analysis of CREPT following 24 h incubation with 10 μM PTRC in Panc-1 cells. MG132 is an inhibitor of proteasome activity. (D) Immunofluorescence visualization of Panc-1 cells after treatment with PRTC for 24 h. Cells were stained with anti-CREPT antibody. Scale bars, 20 μm.

[3] = target: T2, endogenous CREPT protein in MIA PaCa-2 cells (Homo sapiens, UniProt Q9NQG5); assay: Western blot of endogenous CREPT (degradation); settings: 24 h incubation
T2 construct: endogenous protein level of CREPT in Panc-1, AsPc-1 and MIA-PaCa-2 cells; endogenous in cells; host or cells: Panc-1, AsPc-1, MIA PaCa-2
T2 sequence (Q9NQG5 1-326): T1 sequence (Q9NQG5 1-326)
Description: as §1, §2
Figure S3. PRTC induces CREPT degradation. […]

[4] = target: T3, ubiquitinated CREPT in Panc-1 cells (Homo sapiens, UniProt Q9NQG5); assay: Endogenous IP of CREPT with ubiquitin (Co-IP); settings: 10 μM peptide for 24 h
T3 construct: endogenous protein level of CREPT in Panc-1, AsPc-1 and MIA-PaCa-2 cells; endogenous in cells; host or cells: Panc-1, AsPc-1, MIA PaCa-2
T3 sequence (Q9NQG5 1-326): T1 sequence (Q9NQG5 1-326)
Description: as §1
In addition, a Co-IP experiment was performed in Panc-1 cells treated with 10 μM PRTC, PRTC-m or PRTC-v for 24 h. […] In the absence of MG132, the level of ubiquitinated CREPT was further increased by PRTC (Figure 6C, compare lane 1 and lane 2).
Figure 6 The degradation of CREPT by PRTC is dependent on its VHL ligand. (A) Immunoblot of CREPT following 24 h incubation with different dosages of PRTC or PRTC-v in Panc-1 cells. (B) Immunoblot of CREPT exposed to 10 μM PRTC or PRTC-v for different time points in Panc-1 cells. (C) Endogenous IP experiment of CREPT with ubiquitin treated with 10 μM PTRC, PTRC-m or PTRC-v in Panc-1 cells. IP: CREPT, IB: Anti-ubiquitin.

[5] = test system: Panc-1 cells; assay: Cell viability assay (CCK-8); settings: 10 μM, CCK-8, OD450, three individual experiments
Description: (§3) Cells were seeded into 96-well plates (1000 cells per well) and cultured for the indicated times. Cell viability was evaluated using a CCK-8 kit (Solarbio, Beijing, China). The value of OD450 was calculated by spectrophotometer and presented as the mean ± standard deviation (SD) from three individual experiments.

[6] = test system: HPDE6-C7 cells; assay: Cell proliferation assay; settings: little CREPT expression
Description: as §3, with “experiments. […]” for “experiments.”
(H) Cell proliferation assay of
HPDE6-C7 cells. […] HPDE6-C7
is anormal pancreatic epithelial cell line.
(1 picture or pasted object on this page, not shown here)

CC[C@H](C)[C@H](N)C(=O)N[C@@H](Cc1ccc(O)cc1)C(=O)N1C[C@H](O)C[C@H]1C(=O)N[C@@H](C)C(=O)N[C@@H](CC(C)C)C(=O)NCCCCCC(=O)N[C@@H](CCCCN)C(=O)N[C@@H](CC(=O)O)C(=O)N[C@H](C(=O)N[C@@H](CC(C)C)C(=O)N[C@@H](CO)C(=O)N[C@@H](CCC(=O)O)C(=O)N[C@@H](CCCCN)C(=O)N[C@@H](CCC(=O)O)C(=O)N[C@@H](CCCCN)C(=O)N[C@@H](CCCCN)C(=O)N[C@@H](CC(C)C)C(=O)N[C@@H](CCC(=O)O)C(=O)N[C@@H](CCC(=O)O)C(=O)N[C@@H](Cc1ccc(O)cc1)C(=O)N[C@@H](CCCCN)C(=O)N[C@@H](CCC(N)=O)C(=O)N[C@@H](CCCCN)C(=O)N[C@@H](CC(C)C)C(=O)N[C@@H](C)C(=O)N[C@@H](CCCNC(=N)N)C(=O)N[C@H](C(=O)N[C@@H](CCCNC(=N)N)C(=O)N[C@@H](CCCNC(=N)N)C(=O)N[C@@H](CCCNC(=N)N)C(=O)N[C@@H](CCCNC(=N)N)C(=O)N[C@@H](CCCCN)C(=O)O)C(C)C)C(C)C [PRTC] (H-IY[Hyp]AL[Ahx]KDVLSEKEKKLEEYKQKLARVRRRRK-OH; N-terminus and C-terminus assumed)
time to permeate into pancreatic cancer cells [1]: ≤ 2 h
CREPT protein level at different times ([2]; 10 μM or 20 μM peptide): decreases
CREPT protein level upon different dosages ([2]; 24 h incubation): dramatically decreased
CREPT protein level upon different dosages [3]: dramatically decreased
CREPT protein level ([4]; Co-IP experiment): significantly decreased
ubiquitinated CREPT proteins ([4]; IP: CREPT, IB: anti-ubiquitin): increased
cell proliferation [5]: dramatically inhibited
cell proliferation of a normal pancreatic epithelial cell line [6]: failed to influence; also recorded: failed to inhibit
